Experimental data: patent publication US9359338B2, “Cyclopropanecarboxamido-substitute aromatic compounds as anti-tumor agents” (Crown Bioscience Inc. (Taiwan), priority 2012, dated 2016)
Blank lines part the entries; values can stand above or below the compound they belong to.

Tests used:
[1] = Half-life in pre-clinical animal studies; type: in vivo; settings: compared with compounds of the invention
[2] = tested on: tumor; assay: In vivo anti-tumor activity in pre-clinical animal studies; settings: compared with compounds of the invention
[3] = tested on: pERK in MDA-MB-231 cells; assay: Inhibitory activity at pERK (In Cell Western, MDA-MB-231 cells); type: cell-based; settings: Homo sapiens, MDA-MB-231, MDA-MB-231 cells; read-out: MDA-MB-231 pERK IC50
Method in brief: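 pERK was measured by in-cell immunofluorescence (PI nuclear counterstain, Acumen read-out) in fixed MDA-MB-231 cells. Compound exposure lasted 2 h in DMEM with 0.1% BSA, using eight 3-fold dilutions starting at 30 μM final and 0.3% DMSO. IC50 values were derived from the resulting curves.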

[4] = tested on: PLC-PRF-5 cells; assay: Inhibition of proliferation of PLC-PRF-5 cells (ATPlite); type: cell-based; settings: Homo sapiens, PLC-PRF-5, PLC-PRF-5 cells; read-out: PLC-PRF-5 cell proliferation IC50
Method in brief: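 Antiproliferative IC50 from luminescent ATP detection (ATPlite) after 96 h compound exposure at 37 °C. Cells grown in DMEM plus 10% FBS and allowed 2 h to settle, then dosed with eight 3-fold dilutions topping at 30 μM final, DMSO 0.3%.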

[5] = target: B-Raf kinase (Homo sapiens (Human), UniProt P15056); assay: Inhibitory activity at B-Raf kinase (ADP-GLO assay); type: biochemical
B-Raf kinase, sequence (P15056 416-766): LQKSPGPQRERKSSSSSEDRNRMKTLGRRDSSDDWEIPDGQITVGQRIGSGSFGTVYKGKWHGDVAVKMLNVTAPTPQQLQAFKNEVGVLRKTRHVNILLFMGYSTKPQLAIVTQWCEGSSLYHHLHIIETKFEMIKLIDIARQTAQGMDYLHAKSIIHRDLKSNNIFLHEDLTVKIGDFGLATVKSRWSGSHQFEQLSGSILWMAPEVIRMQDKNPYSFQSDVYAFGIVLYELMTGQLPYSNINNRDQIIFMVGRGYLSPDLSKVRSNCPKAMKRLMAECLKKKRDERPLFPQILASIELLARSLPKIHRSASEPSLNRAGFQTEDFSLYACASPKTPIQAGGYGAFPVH
Method in brief: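 B-Raf (5 nM) was preincubated with compound (0.25% DMSO final) for 20 min at 30 °C in 50 mM Hepes pH 7.5, 10 mM Mg²⁺, 1 mM EGTA, 2 mM DTT. Reaction with 6 μM ATP and 30 nM GST-MEK1 ran 2 hrs at 30 °C. ADP was detected by ADP-GLO luminescence, giving IC50 values.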

[6] = target: KDR kinase (790-1356 AA) (Homo sapiens (Human), UniProt P35968); assay: Inhibitory activity at KDR kinase (Lance Ultra Ulight-TK assay); type: biochemical
KDR kinase (790-1356 AA), sequence (P35968 790-1356): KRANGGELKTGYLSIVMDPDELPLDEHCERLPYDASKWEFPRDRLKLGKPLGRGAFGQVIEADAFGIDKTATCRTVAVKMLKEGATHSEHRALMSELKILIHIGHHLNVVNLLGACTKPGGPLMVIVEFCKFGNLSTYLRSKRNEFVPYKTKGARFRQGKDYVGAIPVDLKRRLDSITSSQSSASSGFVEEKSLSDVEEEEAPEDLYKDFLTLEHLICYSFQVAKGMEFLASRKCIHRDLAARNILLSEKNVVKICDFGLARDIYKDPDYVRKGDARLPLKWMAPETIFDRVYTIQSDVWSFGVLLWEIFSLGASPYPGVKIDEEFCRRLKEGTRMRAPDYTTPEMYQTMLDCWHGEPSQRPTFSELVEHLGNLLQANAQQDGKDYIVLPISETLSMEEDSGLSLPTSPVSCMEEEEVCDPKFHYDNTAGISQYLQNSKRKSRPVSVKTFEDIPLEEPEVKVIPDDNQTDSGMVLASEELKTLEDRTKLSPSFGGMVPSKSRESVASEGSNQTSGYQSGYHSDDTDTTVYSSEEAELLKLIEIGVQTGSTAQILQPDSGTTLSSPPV
Method in brief: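 Kinase (20 nM final) and compound were premixed 20 min at 30 °C, then phosphorylation ran 2 h at 30 °C with ATP at 90 μM and Ulight-TK substrate at 50 μM, pH 7.5, Mg2+ and Mn2+ present.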

Compound: CNC(=O)c1cc(Oc2ccc(NC(=O)Nc3ccc(Cl)c(C(F)(F)F)c3)cc2)ccn1 [sorafenib]
half-life [1]: shorter half-life than many of the compounds in this invention
in vivo anti-tumor activities [2]: weaker than that of many of the compounds in the present invention

Compound: CN1CCC(c2cc(NC(=O)Nc3ccc(Oc4ccnc(NC(=O)C5CC5)c4)cc3)cc(C(F)(F)F)c2)CC1 [Exe. 143]
IC50 [3]: 13.4 nM
IC50 [4]: 892 nM
IC50 [5]: 5.5 nM
IC50 [6]: 9.5 nM

Compound: CC1CN(c2cc(NC(=O)Nc3ccc(Oc4ccnc(NC(=O)C5CC5)c4)c(F)c3)cc(C(F)(F)F)c2)C(=O)O1 (centres unmarked) [Exe. 041]
IC50 [3]: 18.1 nM
IC50 [4]: 358 nM
IC50 [5]: 37.5 nM
IC50 [6]: 4.2 nM

Compound: O=C(Nc1cccc(C(F)(F)F)c1)Nc1ccc(Oc2ccnc(NC(=O)C3CC3)c2)c(F)c1 [Exe. 061]
IC50 [3]: 26.3 nM
IC50 [4]: 211 nM
IC50 [5]: 6.3 nM
IC50 [6]: 3.73 nM

Compound: Cc1cc(Oc2ccnc(NC(=O)C3CC3)c2)ncc1NC(=O)Nc1cc(C(F)(F)F)ccc1F [Exe. 127]
IC50 [3]: 11.6 nM
IC50 [4]: 642 nM
IC50 [5]: 7.2 nM
IC50 [6]: 11.8 nM

Compound: Cc1cc(NC(=O)Nc2cc(C(C)(F)F)ccc2F)ccc1Oc1cc(NC(=O)C2CC2)ncn1 [Exe. 116]
IC50 [3]: 30.4 nM
IC50 [4]: 125 nM
IC50 [5]: 111 nM
IC50 [6]: 7.9 nM

Compound: Cc1cc(Oc2cc(NC(=O)C3CC3)ncn2)ccc1NC(=O)Nc1ccc(Cl)c(C(F)(F)F)c1 [Exe. 001, N-[6-[4-[[4-chloro-3-(trifluoromethyl)phenyl]carbamoylamino]-3-methyl-phenoxy]pyrimidin-4-yl]cyclopropanecarboxamide]
IC50 [3]: 31 nM
IC50 [4]: 6900 nM
IC50 [5]: 39 nM
IC50 [6]: 10.9 nM

Compound: CS(=O)(=O)c1cc(NC(=O)Nc2ccc(Oc3ccnc(NC(=O)C4CC4)c3)cn2)cc(C(F)(F)F)c1 [Exe. 136]
IC50 [3]: 46 nM
IC50 [4]: 470 nM
IC50 [5]: 29 nM
IC50 [6]: 6.6 nM

Compound: O=C(Nc1ccc(Oc2ccnc(NC(=O)C3CC3)c2)nc1)Nc1ccc(Cl)c(C(F)(F)F)c1 [Exe. 020]
IC50 [3]: 291 nM
IC50 [4]: 1990 nM
IC50 [5]: 19.7 nM
IC50 [6]: 5.8 nM

Compound: Cc1cc(NC(=O)Nc2cc(OC(C)C)cc(C(F)(F)F)c2)cnc1Oc1ccnc(NC(=O)C2CC2)c1 [Exe. 126]
IC50 [3]: 24.3 nM
IC50 [4]: 2440 nM
IC50 [5]: 61.4 nM
IC50 [6]: 30.2 nM

Compound: CC(=O)Nc1cc(NC(=O)Nc2ccc(Oc3ccnc(NC(=O)C4CC4)c3)c(F)c2)cc(C(F)(F)F)c1 [Exe. 044]
IC50 [3]: 29.8 nM
IC50 [4]: 752 nM
IC50 [5]: 13 nM
IC50 [6]: 14.2 nM

Compound: Cc1ccc(Oc2ccnc(NC(=O)C3CC3)c2)cc1NC(=O)Nc1ccc(Cl)c(C(F)(F)F)c1 [Exe. 030]
IC50 [3]: 23.2 nM
IC50 [4]: 2800 nM
IC50 [5]: 18 nM
IC50 [6]: 12.4 nM

Continued, in another order:

IC50 [3]: 27.2 nM
IC50 [5]: 7 nM
IC50 [6]: 9.7 nM
Compound: Nc1cc(NC(=O)Nc2ccc(Oc3ccnc(NC(=O)C4CC4)c3)c(F)c2)cc(C(F)(F)F)c1 [Exe. 239]
IC50 [4]: 930 nM

IC50 [3]: 12 nM
IC50 [5]: 11 nM
IC50 [6]: 10.7 nM
Compound: Cc1ccc(Oc2ccnc(NC(=O)C3CC3)c2)cc1NC(=O)Nc1cc(C(F)(F)F)ccc1F [Exe. 225]
IC50 [4]: 5720 nM

IC50 [3]: 10.9 nM
IC50 [5]: 14 nM
IC50 [6]: 11 nM
Compound: Cc1cc(NC(=O)Nc2cccc(OC(F)(F)F)c2)ccc1Oc1ccnc(NC(=O)C2CC2)c1 [Exe. 232]
IC50 [4]: 418 nM

IC50 [3]: 74.3 nM
IC50 [5]: 87 nM
IC50 [6]: 11.9 nM
Compound: N#Cc1cc(NC(=O)Nc2ccc(Oc3ccnc(NC(=O)C4CC4)c3)c(F)c2)cc(C(F)(F)F)c1 [Exe. 190]
IC50 [4]: 875 nM

IC50 [3]: 12 nM
IC50 [5]: 20.7 nM
IC50 [6]: 11.7 nM
Compound: Cc1cc(NC(=O)Nc2ccc(F)c(C(F)(F)F)c2)ccc1Oc1ccnc(NC(=O)C2CC2)c1 [Exe. 230]
IC50 [4]: 830 nM

IC50 [3]: 23 nM
IC50 [5]: 32 nM
IC50 [6]: 15.2 nM
Compound: O=C(Nc1ccc(Oc2ccnc(NC(=O)C3CC3)c2)c(F)c1)Nc1ccc(F)c(C(F)(F)F)c1 [Exe. 153]
IC50 [4]: 735 nM

IC50 [3]: 37.7 nM
IC50 [5]: 37 nM
IC50 [6]: 8.3 nM
Compound: O=C(Nc1ccc(Oc2ccnc(NC(=O)C3CC3)c2)c(F)c1)Nc1cc(C(F)(F)F)ccc1F [Exe. 156]
IC50 [4]: 52 nM
